Results reported in patent US20030171598A1, “Aminoacid-iodine complex” (priority 2001, published 2003).

Tested on: vibrio splendidus
Details: Penaeus vannamei pond
Excerpt: 600,000 of Penaeus vannamei were raised in a pond with 1.1M depth and 1.6 hectare. […] At the next night, the pond was sterilized using the product prepared according to Example 5 with the content of iodine of 0.01 ppm.

Q: How did the killing vibrio splendidus (content of iodine 0.01 ppm) turn out when CSCC[C@H](N)C(=O)O.I [Example 5, methionine iodine] was run?
A: The killing vibrio splendidus was “very effective”.

Q: And the “time after which glimmering in the pond has disappeared” value (sterilized at content of iodine of 0.01 ppm)?
A: The value was 40 min.
